From patent publication US9029337B2, “Modulation of factor 7 expression” (Isis Pharmaceuticals, Inc., priority 2007, dated 2015) come the findings set out here.

Strand notation (5' to 3'): a small letter for the sugar, then the base; units joined by * are phosphorothioate-linked, units joined directly phosphodiester-linked; [ ] holds rarer units or linkages, { } end groups; capitals alone tell only the bases. e = 2'-O-(2-methoxyethyl) (MOE); [5mC] = 5-methylcytosine; d = 2'-deoxy (DNA)

As a reminder, the % Inhibition is the percentage by which the read-out fell short of the control. Lower therefore signals a weak effect.

For the first data set, the system named is human Factor 7 mRNA. In words: Antisense inhibition of human Factor 7 mRNA in HepB3 cells, 50 nM antisense oligonucleotide, lipofectin. The settings on record: Table 13 (microwalk), 50 nM, lipofectin, approximately 24 hours. It counts as cell-based. An outline of the steps: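 Cells plated at 4,000 per well were transfected and harvested after approximately 24 hours of treatment. Transcript levels, measured with primer probe set RTS 2927, were normalised to total RNA by RIBOGREEN®. Values are percent inhibition relative to untreated control cells.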
“416482 (antisense e[5mC]*eA*eT*eG*eG*dT*dG*dA*dT*dG*d[5mC]*dT*dT*d[5mC]*dT*eG*eA*eA*eT*eT) [compound 416482]”: the “% Inhibition” value is recorded as 64%.

Still in this data set, the particulars now being: gapmers targeted to nucleobases 4868 to 4899 of SEQ ID NO: 1, Table 8.
For the substance “416509 (antisense eA*eG*eG*eA*eG*d[5mC]*d[5mC]*d[5mC]*dG*dA*dG*dT*dT*d[5mC]*dT*eG*e[5mC]*eA*eG*eG) [compound 416509]”, the “% Inhibition of human Factor 7 mRNA levels” value is 60%.

The data set is the same for the next values; noted with them: lipofectin, 50 nM antisense oligonucleotide, approximately 24 hours, Factor 7 mRNA by real-time RT-PCR (RTS 2927), relative to untreated control.
For the substance “416467 (antisense e[5mC]*e[5mC]*e[5mC]*eT*eG*dG*d[5mC]*d[5mC]*d[5mC]*d[5mC]*dA*dG*d[5mC]*dT*dG*eA*e[5mC]*eG*eA*eT) [compound 416467]”, the “% Inhibition” value is 55%.

For “416468 (antisense eT*eG*eG*eG*eA*dG*dA*d[5mC]*d[5mC]*d[5mC]*dT*dG*dG*dT*dG*eT*eA*e[5mC]*eA*e[5mC]) [compound 416468]”, the “% Inhibition” value was 46%.

As to “416469 (antisense eG*e[5mC]*eA*eG*e[5mC]*d[5mC]*dA*d[5mC]*dT*d[5mC]*dG*dA*dT*dG*dT*eA*e[5mC]*eT*eG*eG) [compound 416469]”, the “% Inhibition” value is listed as 55%.

Consider “416470 (antisense eG*e[5mC]*eT*eT*eT*dT*dG*d[5mC]*dA*dG*d[5mC]*d[5mC]*dA*d[5mC]*dT*e[5mC]*eG*eA*eT*eG) [compound 416470]”, for which the “% Inhibition” value was found to be 39%.

For the substance “416471 (antisense eT*eG*eA*eG*e[5mC]*dT*dT*dT*dT*dG*d[5mC]*dA*dG*d[5mC]*d[5mC]*eA*e[5mC]*eT*e[5mC]*eG) [compound 416471]”, the “% Inhibition” value is given as 62%.

Consider “416473 (antisense e[5mC]*e[5mC]*e[5mC]*eT*eG*d[5mC]*d[5mC]*d[5mC]*d[5mC]*dT*d[5mC]*dT*dG*dT*d[5mC]*e[5mC]*eA*eG*e[5mC]*eG) [compound 416473]”, for which the “% Inhibition” value is 61%.

Regarding “416474 (antisense eT*eG*eT*e[5mC]*eT*dG*d[5mC]*d[5mC]*dT*d[5mC]*d[5mC]*dA*dG*dG*dA*e[5mC]*eA*eA*e[5mC]*e[5mC]) [compound 416474]”, the “% Inhibition” value is 40%.

As for “416475 (antisense e[5mC]*eT*e[5mC]*eA*eG*d[5mC]*dT*dG*dG*dG*d[5mC]*dT*dG*dT*d[5mC]*eT*eG*e[5mC]*e[5mC]*eT) [compound 416475]”, the “% Inhibition” value came to 70%.

On to “416476 (antisense eG*e[5mC]*eA*eG*eG*dT*dG*dG*dG*d[5mC]*dT*dT*dG*dG*d[5mC]*eT*eG*eA*eA*eG) [compound 416476]”, for which the “% Inhibition” value was found to be 58%.

Take “416478 (antisense eG*eT*e[5mC]*eT*e[5mC]*d[5mC]*dA*dG*d[5mC]*dA*dA*dT*dG*dA*dA*eG*eG*e[5mC]*eA*eG) [compound 416478]”: the “% Inhibition” value is on record as 44%.

Take “416479 (antisense eG*eA*e[5mC]*eA*eG*d[5mC]*dA*d[5mC]*dA*d[5mC]*dA*dT*dG*dG*dA*eG*eT*e[5mC]*eA*eG) [compound 416479]”: the “% Inhibition” value is 56%.

Turning to “416480 (antisense eA*eA*eG*eT*eG*dA*dG*dA*dG*d[5mC]*dT*dA*dA*dA*d[5mC]*eA*eA*e[5mC]*e[5mC]*eG) [compound 416480]”, the “% Inhibition” value came out at 25%.

As for “416481 (antisense eA*eG*eA*eT*eG*dA*dT*dA*dA*dT*dG*dG*dA*dT*dA*eA*eG*eA*eA*e[5mC]) [compound 416481]”, the “% Inhibition” value is listed as 15%.

Regarding “416482 (antisense e[5mC]*eA*eT*eG*eG*dT*dG*dA*dT*dG*d[5mC]*dT*dT*d[5mC]*dT*eG*eA*eA*eT*eT) [compound 416482]”, the “% Inhibition” value is reported as 64%.

As for “416483 (antisense eT*eG*eT*eG*eA*dG*dG*dG*dT*dT*d[5mC]*dA*dT*dT*dT*e[5mC]*eA*eG*eT*eG) [compound 416483]”, the “% Inhibition” value stood at 22%.

Regarding “416484 (antisense eT*eA*e[5mC]*eA*eG*d[5mC]*d[5mC]*dT*d[5mC]*dA*dA*dA*d[5mC]*dA*dT*e[5mC]*eT*eA*eT*e[5mC]) [compound 416484]”, the “% Inhibition” value worked out at 0%.

On to “416485 (antisense eG*eA*eG*e[5mC]*eT*dA*d[5mC]*dA*dG*d[5mC]*d[5mC]*dT*d[5mC]*dA*dA*eA*e[5mC]*eA*eT*e[5mC]) [compound 416485]”, for which the “% Inhibition” value was determined as 7%.

As for “416486 (antisense eA*eT*eT*eG*eA*d[5mC]*dA*dA*dG*dG*dG*d[5mC]*dT*dG*dT*eG*eG*e[5mC]*eA*eG) [compound 416486]”, the “% Inhibition” value turned out to be 12%.

As for “416487 (antisense eG*e[5mC]*eA*eG*eG*dT*dG*d[5mC]*dT*d[5mC]*d[5mC]*d[5mC]*dA*dG*dG*eG*eT*e[5mC]*eT*e[5mC]) [compound 416487]”, the “% Inhibition” value worked out at 39%.

For the substance “416488 (antisense e[5mC]*eA*eG*eG*eT*d[5mC]*d[5mC]*dT*d[5mC]*d[5mC]*d[5mC]*dA*d[5mC]*dT*dG*e[5mC]*eA*eG*e[5mC]*e[5mC]) [compound 416488]”, the “% Inhibition” value is reported as 41%.

With “416489 (antisense eG*eT*eG*e[5mC]*eA*dG*d[5mC]*dT*dT*dG*d[5mC]*d[5mC]*dA*dG*dG*eT*e[5mC]*e[5mC]*eT*e[5mC]) [compound 416489]”, the “% Inhibition” value was determined as 38%.

As for “416490 (antisense eA*e[5mC]*eT*e[5mC]*eA*dG*d[5mC]*dA*dA*dG*dA*dG*dT*dG*d[5mC]*eA*eG*e[5mC]*eT*eT) [compound 416490]”, the “% Inhibition” value was found to be 33%.

On to “416491 (antisense eG*eA*eG*eA*eA*dG*dG*dG*dT*dT*dG*d[5mC]*dA*dG*dG*e[5mC]*eA*eG*eG*eA) [compound 416491]”, for which the “% Inhibition” value is on record as 2%.

On to “416492 (antisense eG*eG*eA*eT*e[5mC]*dA*dT*dT*d[5mC]*dT*dG*dG*d[5mC]*d[5mC]*d[5mC]*eT*eG*eA*eG*e[5mC]) [compound 416492]”, for which the “% Inhibition” value was determined as 13%.

Turning to “416493 (antisense eT*e[5mC]*eT*eT*eG*dG*dG*dT*dG*dT*dG*dG*dA*dT*dG*eT*eA*eA*eA*eT) [compound 416493]”, the “% Inhibition” value stood at 0%.

As for “416494 (antisense e[5mC]*eA*eG*eA*eT*dT*dT*dA*dA*dA*d[5mC]*dT*dG*d[5mC]*dA*eG*eA*eT*eG*eA) [compound 416494]”, the “% Inhibition” value turned out to be 0%.

In the case of “416495 (antisense eT*e[5mC]*eT*eA*eG*dA*dA*dT*dT*d[5mC]*d[5mC]*dA*dA*dA*d[5mC]*e[5mC]*e[5mC]*e[5mC]*eT*eA) [compound 416495]”, the “% Inhibition” value was found to be 0%.

Turning to “416496 (antisense e[5mC]*eA*eA*e[5mC]*eA*d[5mC]*dT*dT*d[5mC]*dA*dA*dA*dT*dA*d[5mC]*eG*eA*eT*e[5mC]*eT) [compound 416496]”, the “% Inhibition” value is given as 0%.

“416497 (antisense e[5mC]*eG*eT*eG*e[5mC]*dA*dG*dG*dT*dG*dT*dT*dA*dA*dG*eG*eT*eG*eT*eG) [compound 416497]”: the “% Inhibition” value was found to be 0%.

For “416498 (antisense eG*eG*e[5mC]*e[5mC]*eA*dG*dT*dG*dG*d[5mC]*d[5mC]*dA*dT*dG*d[5mC]*eA*eT*e[5mC]*e[5mC]*e[5mC]) [compound 416498]”, the “% Inhibition” value came out at 5%.

Regarding “416499 (antisense eG*eA*eG*eA*eG*d[5mC]*dT*dG*d[5mC]*dA*d[5mC]*d[5mC]*dT*dG*dG*e[5mC]*e[5mC]*eG*eG*e[5mC]) [compound 416499]”, the “% Inhibition” value was found to be 7%.

“416500 (antisense e[5mC]*eT*eG*eA*eA*d[5mC]*dA*d[5mC]*d[5mC]*d[5mC]*d[5mC]*dA*dG*d[5mC]*dT*eG*eA*eG*eA*eG) [compound 416500]”: the “% Inhibition” value is listed as 1%.

For “416501 (antisense e[5mC]*eT*eG*e[5mC]*e[5mC]*d[5mC]*dT*dT*d[5mC]*d[5mC]*dA*d[5mC]*d[5mC]*dA*dA*eG*eT*eT*eT*eA) [compound 416501]”, the “% Inhibition” value came to 18%.

As for “416502 (antisense eG*eT*eT*e[5mC]*eT*dT*dT*dG*dA*dA*dA*dA*dA*dT*dA*eA*eT*e[5mC]*e[5mC]*e[5mC]) [compound 416502]”, the “% Inhibition” value is recorded as 22%.

Regarding “416503 (antisense eT*eA*eG*e[5mC]*e[5mC]*dA*d[5mC]*d[5mC]*d[5mC]*d[5mC]*dG*d[5mC]*dG*dG*dG*e[5mC]*eT*eG*eG*e[5mC]) [compound 416503]”, the “% Inhibition” value came out at 0%.

Take “416504 (antisense eT*e[5mC]*eA*eG*eA*dA*dA*dA*dG*d[5mC]*dT*d[5mC]*dT*d[5mC]*dA*eA*eG*eA*eA*e[5mC]) [compound 416504]”: the “% Inhibition” value was found to be 0%.

Consider “416505 (antisense eG*e[5mC]*eA*eG*eA*dT*dT*dT*dG*d[5mC]*dA*dT*d[5mC]*dA*dG*eA*eA*eA*eA*eG) [compound 416505]”, for which the “% Inhibition” value was found to be 45%.

On to “416506 (antisense e[5mC]*eT*eT*eT*eA*dA*dA*dA*dT*d[5mC]*dA*dG*dT*dT*dT*e[5mC]*eA*e[5mC]*eA*e[5mC]) [compound 416506]”, for which the “% Inhibition” value turned out to be 18%.

As to “416509 (antisense eA*eG*eG*eA*eG*d[5mC]*d[5mC]*d[5mC]*dG*dA*dG*dT*dT*d[5mC]*dT*eG*e[5mC]*eA*eG*eG) [compound 416509]”, the “% Inhibition” value turned out to be 56%.

For the substance “416510 (antisense eG*eA*e[5mC]*eG*eA*dG*dG*d[5mC]*d[5mC]*dT*d[5mC]*dA*dG*dG*dT*eG*eG*eA*e[5mC]*eG) [compound 416510]”, the “% Inhibition” value is reported as 30%.

For “416511 (antisense eT*eT*eG*e[5mC]*eT*dG*dG*dG*dA*dG*dG*dA*d[5mC]*dG*dA*eG*eG*e[5mC]*e[5mC]*eT) [compound 416511]”, the “% Inhibition” value was determined as 35%.

Regarding “416512 (antisense eG*eA*e[5mC]*eG*eA*d[5mC]*d[5mC]*dT*dT*dT*dG*d[5mC]*dT*dG*dG*eG*eA*eG*eG*eA) [compound 416512]”, the “% Inhibition” value stood at 43%.

As for “416513 (antisense e[5mC]*eT*eG*eA*eT*dG*dT*dG*dA*dA*dA*dA*d[5mC]*d[5mC]*dG*eG*e[5mC]*eA*eT*eG) [compound 416513]”, the “% Inhibition” value is recorded as 37%.

Consider “416514 (antisense eG*eT*eA*eT*eT*dT*dT*d[5mC]*dT*dG*dA*dT*dG*dT*dG*eA*eA*eA*eA*e[5mC]) [compound 416514]”, for which the “% Inhibition” value came to 8%.

Still in this data set, the particulars now being: oligonucleotides targeted to nucleobases 15098 to 15122 of SEQ ID NO: 1 (Table 12).
For the substance “416479 (antisense eG*eA*e[5mC]*eA*eG*d[5mC]*dA*d[5mC]*dA*d[5mC]*dA*dT*dG*dG*dA*eG*eT*e[5mC]*eA*eG) [compound 416479]”, the “% Inhibition (human Factor 7 mRNA levels)” value is 47%.
